This is an account of results in US12637440B2, “Amide derivative useful as diacylglycerol acyltransferase 2 inhibitor, and use thereof” (LG CHEM, LTD., priority 2019, dated 2026).

Structures are written as SMILES.

As usually defined, the IC50 is the point on the concentration scale where inhibition reaches its midpoint.

The test concerns the target T1, Recombinant human DGAT2 protein (Homo sapiens, UniProt Q96PD7).
T1 construct: FLAG (DYKDDDDK); (N); made in house; host or cells: Sf-21 insect cells (BacPAK baculovirus system); used as a membrane preparation
T1 sequence (Q96PD7 1-388): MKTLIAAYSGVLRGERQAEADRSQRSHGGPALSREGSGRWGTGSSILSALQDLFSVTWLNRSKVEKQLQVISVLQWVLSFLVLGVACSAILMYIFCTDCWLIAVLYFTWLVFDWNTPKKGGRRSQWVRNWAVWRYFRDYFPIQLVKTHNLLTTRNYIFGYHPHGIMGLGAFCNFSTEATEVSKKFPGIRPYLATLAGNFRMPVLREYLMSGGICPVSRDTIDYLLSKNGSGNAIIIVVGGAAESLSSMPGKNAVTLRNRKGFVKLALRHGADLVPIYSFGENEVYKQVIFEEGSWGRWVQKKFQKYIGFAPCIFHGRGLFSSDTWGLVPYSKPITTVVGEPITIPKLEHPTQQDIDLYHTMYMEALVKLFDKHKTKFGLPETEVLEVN
Put plainly: Measurement of inhibitory effect against DGAT2 enzyme activity (SPA, Phospholipid FlashPlate, [14C]-TG production). The test is classed as biochemical. As to conditions: concentration inhibiting [14C]-labeled triacyl glycerol (TG) production by 50%; 2 μg DGAT2-membrane protein from Sf-21 cells, 37° C. In short, it runs like this: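 Membranes from Sf-21 cells expressing human DGAT2 (2 μg) preincubated 20 min at 37 °C with compound (3 nM–10 μM, 1% DMSO) in HEPES/MgCl2/BSA with 50 μM 1,2-dioleoyl glycerol, then 1 μM [14C]oleoyl-CoA for 15 min. [14C]-TG measured by SPA FlashPlate; inhibition as % of untreated control.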

Regarding `CCOc1ccccc1O[C@@H]1CCCN(c2cncc(NC(=O)C3CCN(c4ncc(C(=O)O)cn4)CC3)n2)C1` [Example 75, (R)-2-(4-((6-(3-(2-ethoxyphenoxy)piperidin-1-yl)pyrazin-2-yl)carbamoyl)piperidin-1-yl)pyrimidine-5-carboxylic acid], the IC50 was 1.2 µM. The result for `CCOc1ccccc1O[C@@H]1CCCN(c2cncc(NC(=O)CC(C)(C)C(=O)O)n2)C1` [Example 22, (R)-4-((6-(3-(2-ethoxyphenoxy)piperidin-1-yl)pyrazin-2-yl)amino)-2,2-dimethyl-4-oxobutanoic acid] reads 1.3 µM; that for `CCOc1ccccc1O[C@@H]1CCCN(c2cncc(NC(=O)/C=C/c3ccc(C(=O)O)cc3)n2)C1` [Example 41, (R,E)-4-(3-((6-(3-(2-ethoxyphenoxy)piperidin-1-yl)pyrazin-2-yl)amino)-3-oxoprop-1-en-1-yl)benzoic acid], 3.1 µM. In the case of `CC(C)(Cc1ccc(C(C)(C)C(=O)Nc2cncc(N3CCC[C@@H](Oc4ccccc4OC4CCC4)C3)n2)cc1)C(=O)O` [Example 126, (R)-3-(4-(1-((6-(3-(2-cyclobutoxyphenoxy)piperidin-1-yl)pyrazin-2-yl)amino)-2-methyl-1-oxopropan-2-yl)phenyl)-2,2-dimethylpropanoic acid] it was 3.8 µM; in that of `CCOc1ccccc1O[C@@H]1CCCN(c2cncc(NC(=O)C3(C)CCN(c4ccc(C(=O)O)cn4)C3)n2)C1` (stereo partly drawn) [Example 89, 6-(3-((6-((R)-3-(2-ethoxyphenoxy)piperidin-1-yl)pyrazin-2-yl)carbamoyl)-3-methylpyrrolidin-1-yl)nicotinic acid], 0.59 µM; in that of `CCOc1ccccc1O[C@@H]1CCCN(c2cccc(NC(=O)Cc3ccc(CC(=O)O)cc3)n2)C1` [Example 66, (R)-2-(4-(2-((6-(3-(2-ethoxyphenoxy)piperidin-1-yl)pyridin-2-yl)amino)-2-oxoethyl)phenyl)acetic acid], 2.7 µM.

`CCOc1ccccc1O[C@@H]1CCCN(c2cncc(NC(=O)C3CCN(C(C)=O)CC3)n2)C1` [Example 16]: the IC50 was 0.39 µM. Consider `CCOc1ccccc1O[C@@H]1CCCN(c2cncc(NC(=O)Cc3cccc(C(F)(F)F)c3)n2)C1` [Example 26], for which the IC50 is 0.054 µM. In the case of `CCOc1ccccc1O[C@@H]1CCCN(c2cncc(NC(=O)Cc3cccc(Cl)c3)n2)C1` [Example 30, (R)-2-(3-chlorophenyl)-N-(6-(3-(2-ethoxyphenoxy)piperidin-1-yl)pyrazin-2-yl)acetamide] it was 0.029 µM; in that of `CC(C)(C(=O)O)c1ccc(CCC(=O)Nc2cncc(N3CCC[C@@H](Oc4ccccc4OCCF)C3)n2)cc1` [Example 93, (R)-2-(4-(3-((6-(3-(2-(2-fluoroethoxy)phenoxy)piperidin-1-yl)pyrazin-2-yl)amino)-3-oxopropyl)phenyl)-2-methylpropanoic acid], 0.19 µM; in that of `CCOc1ccccc1O[C@@H]1CCCN(c2cncc(NC(=O)/C=C/C34CCC(C(=O)O)(CC3)CC4)n2)C1` [Example 121, (R,E)-4-(3-((6-(3-(2-ethoxyphenoxy)piperidin-1-yl)pyrazin-2-yl)amino)-3-oxoprop-1-en-1-yl)bicyclo[2.2.2]octane-1-carboxylic acid], 0.098 µM.

In the case of `CCOc1ccccc1O[C@@H]1CCCN(c2cncc(NC(=O)c3ccc(OC(C)(C)C(=O)O)cc3)n2)C1` [Example 14, (R)-2-(4-((6-(3-(2-ethoxyphenoxy)piperidin-1-yl)pyrazin-2-yl)carbamoyl)phenoxy)-2-methylpropanoic acid], the 50% inhibitory concentration (IC50) was 12 µM.

For `CCOc1ccccc1O[C@@H]1CCCN(c2cncc(NC(=O)Cc3cc(C(F)(F)F)cc(C(F)(F)F)c3)n2)C1` [Example 27, (R)-2-(3,5-bis(trifluoromethyl)phenyl)-N-(6-(3-(2-ethoxyphenoxy)piperidin-1-yl)pyrazin-2-yl)acetamide], the IC50 is 0.049 µM.

Consider `CCOc1ccccc1O[C@@H]1CCCN(c2cncc(NC(=O)N3CCOCC3)n2)C1` [Example 3, (R)—N-(6-(3-(2-ethoxyphenoxy)piperidin-1-yl)pyrazin-2-yl)morpholine-4-carboxamide], for which the IC50 worked out at 2.3 µM. The result for `CCOc1ccccc1O[C@@H]1CCCN(c2cncc(NC(=O)CC(C)(C)CC(=O)O)n2)C1` [Example 25, (R)-5-((6-(3-(2-ethoxyphenoxy)piperidin-1-yl)pyrazin-2-yl)amino)-3,3-dimethyl-5-oxopentanoic acid] reads 1.8 µM; that for `CCOc1ccccc1O[C@@H]1CCCN(c2cncc(NC(=O)Cc3ccc(O[C@H](C)C(=O)O)cc3)n2)C1` [Example 103, (R)-2-(4-(2-((6-((R)-3-(2-ethoxyphenoxy)piperidin-1-yl)pyrazin-2-yl)amino)-2-oxoethyl)phenoxy)propanoic acid], 0.62 µM; that for `CCOc1cccnc1O[C@@H]1CCCN(c2cncc(NC(=O)Cc3ccc(OC(C)(C)C(=O)O)cc3)n2)C1` [Example 105, (R)-2-(4-(2-((6-(3-((3-ethoxypyridin-2-yl)oxy)piperidin-1-yl)pyrazin-2-yl)amino)-2-oxoethyl)phenoxy)-2-methylpropanoic acid], 0.09 µM. The result for `CCOc1ccccc1O[C@@H]1CCCN(c2cncc(NC(=O)CCc3ccc(CCC(=O)O)cc3)n2)C1` [Example 61, (R)-3-(4-(3-((6-(3-(2-ethoxyphenoxy)piperidin-1-yl)pyrazin-2-yl)amino)-3-oxopropyl)phenyl)propanoic acid] reads 0.15 µM. The result for `CCOc1cccnc1O[C@@H]1CCCN(c2cncc(NC(=O)CCc3cccc(CC(C)(C)C(=O)O)c3)n2)C1` [Example 128, (R)-3-(3-(3-((6-(3-((3-ethoxypyridin-2-yl)oxy)piperidin-1-yl)pyrazin-2-yl)amino)-3-oxopropyl)phenyl)-2,2-dimethylpropanoic acid] reads 0.1 µM. `CCOc1ccccc1O[C@@H]1CCCN(c2cncc(NC(=O)c3cccc(-c4cccc(CC(C)(C)C(=O)O)c4)c3)n2)C1` [Example 129, (R)-3-(3′-((6-(3-(2-ethoxyphenoxy)piperidin-1-yl)pyrazin-2-yl)carbamoyl)-[1,1′-biphenyl]-3-yl)-2,2-dimethylpropanoic acid]: the IC50 was determined as 0.54 µM. The result for `CCOc1ccccc1O[C@@H]1CCCN(c2cncc(NC(=O)CCC(C)(C)C(=O)O)n2)C1` [Example 24, (R)-5-((6-(3-(2-ethoxyphenoxy)piperidin-1-yl)pyrazin-2-yl)amino)-2,2-dimethyl-5-oxopentanoic acid] reads 0.3 µM; that for `CCOc1ccccc1O[C@@H]1CCCN(c2cncc(NC(=O)COc3ccc(C(C)C(=O)O)cc3)n2)C1` (stereo partly drawn) [Example 101, 2-(4-(2-((6-((R)-3-(2-ethoxyphenoxy)piperidin-1-yl)pyrazin-2-yl)amino)-2-oxoethoxy)phenyl)propanoic acid], 0.32 µM; that for `CCOc1ccccc1O[C@@H]1CCCN(c2cncc(NC(=O)C3CCN(c4ccc(C(=O)O)cc4)CC3)n2)C1` [Example 59, (R)-4-(4-((6-(3-(2-ethoxyphenoxy)piperidin-1-yl)pyrazin-2-yl)carbamoyl)piperidin-1-yl)benzoic acid], 1 µM. The result for `CCOc1ccccc1O[C@@H]1CCCN(c2nccc(NC(=O)CCc3ccc(C(C)(C)C(=O)O)cc3)n2)C1` [Example 122, (R)-2-(4-(3-((2-(3-(2-ethoxyphenoxy)piperidin-1-yl)pyrimidin-4-yl)amino)-3-oxopropyl)phenyl)-2-methylpropanoic acid] reads 0.06 µM; that for `CC(C)(Cc1ccc(CC(=O)Nc2cncc(N3CCC[C@@H](Oc4ccccc4OCCF)C3)n2)cc1)C(=O)O` [Example 94, (R)-3-(4-(2-((6-(3-(2-(2-fluoroethoxy)phenoxy)piperidin-1-yl)pyrazin-2-yl)amino)-2-oxoethyl)phenyl)-2,2-dimethylpropanoic acid], 0.11 µM. The result for `CCOc1ccccc1O[C@@H]1CCCN(c2cncc(NC(=O)Cc3ccc(O)cc3)n2)C1` [Example 36, (R)—N-(6-(3-(2-ethoxyphenoxy)piperidin-1-yl)pyrazin-2-yl)-2-(4-hydroxyphenyl)acetamide] reads 0.012 µM; that for `CCOc1cccnc1O[C@@H]1CCCN(c2cncc(NC(=O)CCC34CCC(C(=O)O)(CC3)CC4)n2)C1` [Example 120, (R)-4-(3-((6-(3-((3-ethoxypyridin-2-yl)oxy)piperidin-1-yl)pyrazin-2-yl)amino)-3-oxopropyl)bicyclo[2.2.2]octane-1-carboxylic acid], 0.25 µM.

Regarding `CCOc1cccnc1O[C@@H]1CCCN(c2cncc(NC(=O)CCc3ccc(OC(C)(C)C(=O)O)cc3)n2)C1` [Example 108, (R)-2-(4-(3-((6-(3-((3-ethoxypyridin-2-yl)oxy)piperidin-1-yl)pyrazin-2-yl)amino)-3-oxopropyl)phenoxy)-2-methylpropanoic acid], the IC50 came out at 0.078 µM. Consider `CCOc1cccnc1O[C@@H]1CCCN(c2cncc(NC(=O)C(C)(C)c3ccc(CC(C)(C)C(=O)O)cc3)n2)C1` [Example 125, (R)-3-(4-(1-((6-(3-((3-ethoxypyridin-2-yl)oxy)piperidin-1-yl)pyrazin-2-yl)amino)-2-methyl-1-oxopropan-2-yl)phenyl)-2,2-dimethylpropanoic acid], for which the IC50 came out at 0.035 µM.
